Like-named read-outs stand apart in the source and are kept apart here.
How the values were obtained:
[1] = test system: maximal electroshock seizure; experiment: Maximal electroshock seizure (MES) test on mice; format: in vivo; conditions: 100 mg/kg intragastric
Excerpt: The Maximal Electroshock Seizure Test on Mice
MES (maximal electroshock seizure test) was used to evaluate whether the compounds have an effect against […] and thus to make preliminary evaluation of the efficacy of each compound in treating epilepsy. Multipurpose instrument for pharmacological and biological experiments (mode, YSD-4G) was used to conduct experiments under the condition of convulsive mode, 115V of stimulation voltage, 250 ms of stimulation time, 50 HZ AC voltage. Positive and negative electrodes were used to clamp the left and right ear of the mice, respectively, which were wetted by normal saline. The tonic hind limb extension seizure after stimulation was deemed as judgment standard of grand mal. The mice were randomly divided into groups. The compounds were given by intragastric administration based on the dose of 100 mg/kg.

[2] = Influence on rats' serum total cholesterol and triglyceride; format: in vivo, SD rats; set-up: total cholesterol / triglyceride: unit not given here; conditions: for total cholesterol / triglyceride: rats' serum, 5 weeks after administration
Description: Study on the Influence of the Compounds on the Rats' Total Cholesterol and Triglyceride
50 male SD rats with weight of 180˜200 g were randomly divided into groups with 8 in each group. […] 5 weeks after administration, the level of total cholesterol and triglyceride in rats' serum were determined and the results were shown in table 2.

[3] = test system: maximal electroshock seizure; conditions: literature value, cited from earlier work
[4] = target: T1, Human carbonic anhydrase II (CA-II) (Homo sapiens, UniProt P00918); experiment: Inhibiting effect on carbonic anhydrase (CO2 hydration, bromothymol blue colour change); format: biochemical
T1 construct: purchased Sigma
Description: Preparation Method of the Reagent
Chromogenic Buffer Solution:
HEPES was dissolved in distilled water to prepare a solution with a concentration of 10 mM; the pH was adjusted to 7.7 with 1 M Tris at 23° C.; bromothymol blue was dissolved in HEPES buffer solution with pH 7.7 to a concentration of 50 mg/L;
Saturated CO2-ice water was prepared by adding dry ice into icy distilled water.
Solution of CA-II enzyme was prepared into a concentration of 2 m/ml, and stored at −20° C.
Tested sample was prepared by using distilled water as solvent with various concentrations.
The time required for changing into yellow was recorded. The time required for the blank tube was recorded as t0, the time required for the standard tube was recorded as ts and the time required for the test tube was recorded as t. (t0−ts)/ts was normal activity of enzyme, and (t0−t)/t was the activity after affecting by the test compound.

| Compound | Inhibition rate of epileptic seizure ([1]; 0.5 h after administration) | Inhibition rate of epileptic seizure ([1]; 1.5 h after administration) | Inhibition rate of epileptic seizure ([1]; 2 h after administration) | also measured |
| --- | --- | --- | --- | --- |
| NS(=O)(=O)Cc1noc2ccccc12 [Zonisamide, reference compound] | 33.3% | 16.7% | 16.7% | – |
| CN(C)S(=O)(=O)NCc1noc2ccccc12 [Example 9, N-[(benzo[d]isoxazol-3-yl)methyl]-N′,N′-dimethyl-sulfamide] | 44.4% | – | 11.1% | – |
| NS(=O)(=O)NCc1ccsc1Cl [Example 13, N-[(2-chloro-3-thienyl)methyl]-sulfamide] | 37.5% | – | – | – |
| NS(=O)(=O)NCc1noc2cc(F)ccc12 [Example 2, N-[(6-fluoro-benzo[d]isoxazol-3-yl)methyl]-sulfamide] | – | – | 33.3% | – |
| CC1(C)O[C@@H]2[C@@H](CO[C@@]3(COS(N)(=O)=O)OC(C)(C)O[C@@H]23)O1 [Topiramate, reference compound] | 37.5% | 37.5% | – | total cholesterol ([2]; 40 mg/kg intragastric): 1.56 ± 0.19; triglyceride ([2]; 40 mg/kg intragastric): 1.45 ± 0.34 |
| NS(=O)(=O)NCc1csc2ccccc12 [JNJ-26990990] | – | – | – | Inhibition rate of epileptic seizure ([3]; 0.5 h): 20%; Inhibition rate of epileptic seizure ([3]; 2 h): 60% |
| NS(=O)(=O)NCc1noc2ccccc12 [Example 3, N-[(benzo[d]isoxazol-3-yl)methyl]-sulfamide] | 88.9% | 66.7% | 77.8% | total cholesterol ([2]; 20 mg/kg intragastric): 1.64 ± 0.28; triglyceride ([2]; 20 mg/kg intragastric): 1.13 ± 0.24; total cholesterol ([2]; 40 mg/kg intragastric): 1.53 ± 0.17; triglyceride ([2]; 40 mg/kg intragastric): 0.99 ± 0.16; total cholesterol ([2]; 80 mg/kg intragastric): 1.32 ± 0.21; triglyceride ([2]; 80 mg/kg intragastric): 0.84 ± 0.06; effect on the level of total cholesterol and triglyceride (in words) ([2]; rats' serum, 20, 40, 80 mg/kg, 5 weeks): significantly decrease; IC50 [4]: 154 µM; inhibiting effect on carbonic anhydrase compared with reference drugs (in words) [4]: poorer inhibiting effect than topiramate and zonisamide |
| NS(=O)(=O)NCc1noc2cc(Cl)ccc12 [Example 1, N-[(6-chloro-benzo[d]isoxazol-3-yl)methyl]-sulfamide] | 66.7% | – | 50% | – |

— US10093679B2, “Amino sulfonyl-based compounds, the preparation method therefor and use thereof” (SUZHOU VIGONVITA LIFE SCIENCES CO., LTD., priority 2014, dated 2018)
